Test results taken from patent EP1344834A2, “Methods for the toxicity prediction of a compound” (F. HOFFMANN-LA ROCHE AG, priority 2002, dated 2003).
Where two headings read alike, the source gives them in different places.

Assays:
Gadd153 = assay: Quantitative RT-PCR of GADD-family genes in liver after in vivo dosing; design: species or system Wistar rats; settings: control = 1.0
Experimental: (§1) The quality of RNA was assessed with gel electrophoresis.
(§2) The induction of these genes correlates with the histopathological findings in a time related fashion: While PEG-3 seems to be an early marker, GADD-45 and […] appear regulated at later time points, when the tissue damage is obvious by conventional endpoints.

Gadd45 = assay: as above; design: species or system Wistar rats; settings: control = 1.0
Experimental: as §1, §2

PEG3 = assay: as above; design: species or system Wistar rats; settings: control = 1.0
Experimental: as §1, §2

[1] = system: genes from the GADD family; assay: RT-PCR confirmation of induction of GADD family genes by direct acting compounds; assay type: in vivo, Wistar rats; settings: rat liver (summary of Table 9)
Experimental: as §1, §2

[2] = system: expression profile in liver; assay: Support Vector Machine classification of liver expression profiles; settings: compounds not present in the initial training set; expression profiles of individual animals; Figures 8 and 9
Experimental: Adult male Wistar rats were dosed in vivo and the resulting expression profile in liver was determined. SVMs were built for the discrimination between 3 different classes of hepatotoxicants, non-toxic substances and controls. The training set consisted of 180 gene expression profiles from individual animals treated with direct acting, cholestatic, steatotic, non-toxic compounds and corresponding vehicle-dosed controls. As a first step the chips were rescaled to a median value of 0 and a standard deviation of 1. […] Multi-class classification for a given test chip was then carried out by combining the outputs of all binary. classifiers. A leave-one-out cross validation procedure was applied to assess the quality of the trained machines with respect to the training data. […] By removing all replicates of one compound from the training data, followed by classifying these chips with the resulting decision function, the individual contribution of the given compound for a successful classifier could be examined. RFE was used to investigate the relationship between the number of genes for generating the classifiers, the resulting prediction accuracy, cross-validation errors and the number of used support vectors. The first iteration reduced the gene count to a multiple of 2. In each subsequent iteration the gene count was halved until 32 genes remained. […]

EGR-1 = assay: Quantitative RT-PCR of EGR-1 in liver after in vivo dosing; design: species or system rats; settings: every 12 Hours, sacrificed 3 hours after the last administration, control = 1.0
Experimental: as §1
(§3) Tolcapone (Tasmar) is a human hepatotoxin with no known toxicity in the rat.

EGR1 = assay: Gene expression analysis (GeneChip) of EGR1 after exposure of rats; assay type: in vivo; settings: high inter-individual variability
Experimental: as §1, §3

AH-R [3] = settings: rat, in vivo
Experimental: (§4) Male Wistar rats (generally 5 animals/dose-group) were purchased from BRL (Fullingsdorf, Switzerland) and housed individually. Treated animals were dosed either orally, intraperitoneally, or intravenously with several doses of test compounds (Table 1). The test compounds were categorized according to their toxic manifestation in the rat liver. Control animals received the same volume of vehicle as placebo. Necropsy was performed 6 or 24 hours after a single administration and liver samples from the left medial lobe were placed immediately in RNALater (Ambion, TX, USA) for RNA extraction and gene expression analysis. Samples in RNALater were stored at -20°C until further processing.
(§5) RNA isolation from hepatocytes was typically performed by resuspending approximately 3 Mio. Cells/1.2 mL RNAzol (Tel-Test Inc., TX, USA). […] Total RNA was isolated according to the manufacturer's instruction and quantified by measuring the optical density at 280 nm. The quality of RNA was assessed with gel electrophoresis.
(§6) The regulation of the mRNA levels of several candidate genes (Table 4) was verified with quantitative RT-PCR. […] For each performed RT-PCR reaction, the specificity of the assay was evaluated with dissociation curve software (Applied Biosystems), as well as by assessment of the size of the product using either gel electrophoresis or Agilent Bioanalyzer. […]

CYP2B2 [4] = settings: rat, in vivo
Experimental: as §4, §5, §6

AH-R [5] = settings: rat, in vivo; remark: listed apart in the source
Experimental: as §4
(§7) RNA isolation from hepatocytes was typically performed by resuspending approximately 3 Mio. Cells/1.2 mL RNAzol (Tel-Test Inc., TX, USA). […] Total RNA was isolated according to the manufacturer's instruction and quantified by measuring the optical density at 280 nm. The quality of RNA was assessed with gel electrophoresis. […]
(§8) After hybridization and scanning, the expression level of each gene was calculated by subtracting the fluorescence intensity of the mismatch probes from the match signal (=average difference) using the [sequence] […] Gene expression data were further analyzed with an in-house-developed data analysis tool (RACE-A, Hoffmann-La Roche, Basel, Switzerland). […]

PC3 (BTG2) = settings: rat, in vivo
Experimental: as §4, §7, §8

CYP2B2 [6] = settings: rat, in vivo; remark: listed apart in the source
Experimental: as §4, §7, §8

marker genes [7] = settings: rat, in vivo
Experimental: as §4, §5, §6

CYP2B = assay: Western-blot of liver extracts with antibody specific for CYP2B; assay type: in vivo, rat
Experimental: In addition, Western blots were performed using specific antibodies against the cytochrome P450 CYP2B family in order to evaluate if the clear induction of messenger RNA also led to an increase in the hepatic protein levels. […] This is due to the time lag between protein and mRNA induction (Fig. 11).

marker genes [8] = assay: RT-PCR of marker genes, differentiation of toxic and non-toxic 5-HT6 receptor antagonists (Fig. 10); settings: rat liver, some of the selected genes
Experimental: as §4, §5, §6

[9] = 4500 mmol/kg, sampling time 2 hours
[10] = 4500 mmol/kg, sampling time 6 hours
[11] = 4500 mmol/kg, sampling time 24 hours
[12] = 10 mg/kg, sampling time 2 hours
[13] = 10 mg/kg, sampling time 6 hours
[14] = 10 mg/kg, sampling time 24 hours
[15] = 60 mg/kg, sampling time 2 hours
[16] = 60 mg/kg, sampling time 6 hours
[17] = 60 mg/kg, sampling time 24 hours
[18] = 2 mg/kg, sampling time 24 hours
[19] = 50 mg/kg, sampling time 6 hours

With Clc1ccccc1Cl [1,2-dichlorobenzene] the “PCR Gadd153” value (Gadd153; sampling time 2 hours) was 0.9 fold induction, the “PCR Gadd153” value (Gadd153; sampling time 6 hours) was 0.6 fold induction and the “PCR Gadd153” value (Gadd153; sampling time 24 hours) was 27.9 fold induction. For the same molecule, the “PCR Gadd45” value (Gadd45; [9]) was 2.3 fold induction, the “PCR Gadd45” value (Gadd45; [10]) was 4.9 fold induction and the “PCR Gadd45” value (Gadd45; [11]) was 53.0 fold induction. For the same molecule, the “PCR PEG3” value (PEG3; sampling time 2 hours) was 3.9 fold induction, the “PCR PEG3” value (PEG3; sampling time 6 hours) was 1.9 fold induction and the “PCR PEG3” value (PEG3; sampling time 24 hours) was 54.6 fold induction. For the same molecule, the “induction of genes from the GADD family, namely GADD-45, GADD-153 and PEG-3” value (from here on “induction of genes from the GADD family”) [1] was “induction” and the “classification by support vector machines (identification of compound class)” value [2] was “direct acting compound”.

With Clc1ccc(Cl)cc1 [1,4-dichlorobenzene] the “PCR Gadd153” value (Gadd153; sampling time 2 hours) was 1.0 fold induction, the “PCR Gadd153” value (Gadd153; sampling time 6 hours) was 0.9 fold induction and the “PCR Gadd153” value (Gadd153; sampling time 24 hours) was 2.4 fold induction. For the same molecule, the “PCR Gadd45” value (Gadd45; [9]) was 1.7 fold induction, the “PCR Gadd45” value (Gadd45; [10]) was 0.8 fold induction and the “PCR Gadd45” value (Gadd45; [11]) was 7.2 fold induction. The “PCR PEG3” value (PEG3; sampling time 2 hours) was 0.8 fold induction, the “PCR PEG3” value (PEG3; sampling time 6 hours) was 0.7 fold induction and the “PCR PEG3” value (PEG3; sampling time 24 hours) was 4.2 fold induction.

With O=[N+]([O-])c1ccc(O)c([N+](=O)[O-])c1 [Dinitrophenol] the “PCR EGR-1” value (EGR-1; 10 mg/kg administered three times) was 3.4 fold induction, the “PCR EGR-1” value (EGR-1; 30 mg/kg administered three times) was 8.5 fold induction and the “induction of EGR1” value (EGR1; 10 and 30 mg/kg) was “slight induction”.

CCN(CC)C(=O)/C(C#N)=C/c1cc(O)c(O)c([N+](=O)[O-])c1 [Entacapone] was tested, and the “PCR EGR-1” value (EGR-1; 600 mg/kg administered three times) was 1.0 fold induction.

For NN [Hydrazine], the “PCR Gadd153” value (Gadd153; [12]) was 2.2 fold induction, the “PCR Gadd153” value (Gadd153; [13]) was 4.0 fold induction and the “PCR Gadd153” value (Gadd153; [14]) was 0.4 fold induction. The “PCR Gadd153” value (Gadd153; [15]) was 1.0 fold induction, the “PCR Gadd153” value (Gadd153; [16]) was 0.9 fold induction and the “PCR Gadd153” value (Gadd153; [17]) was 1.7 fold induction. For the same molecule, the “PCR Gadd45” value (Gadd45; [12]) was 1.1 fold induction, the “PCR Gadd45” value (Gadd45; [13]) was 9.9 fold induction and the “PCR Gadd45” value (Gadd45; [14]) was 0.2 fold induction. The “PCR Gadd45” value (Gadd45; [15]) was 1.0 fold induction, the “PCR Gadd45” value (Gadd45; [16]) was 1.8 fold induction and the “PCR Gadd45” value (Gadd45; [17]) was 1.0 fold induction. For the same molecule, the “PCR PEG3” value (PEG3; [12]) was 3.4 fold induction, the “PCR PEG3” value (PEG3; [13]) was 6.3 fold induction and the “PCR PEG3” value (PEG3; [14]) was 2.1 fold induction. For the same molecule, the “PCR PEG3” value (PEG3; [15]) was 20.4 fold induction, the “PCR PEG3” value (PEG3; [16]) was 3.8 fold induction and the “PCR PEG3” value (PEG3; [17]) was 11.9 fold induction. The “induction of genes from the GADD family” value [1] was “induction”.

With Nc1ccc(S(=O)(=O)c2cc(Br)nc(N3CCCC3)c2)cc1 [Ro66-0074, 4-(2-Bromo-6-pyrrolidin-1-yl-pyridine-4-sulfonyl)-phenylamine] the “AH-R RT-PCR” value (AH-R [3]; 360 min) was 1.7, the “AH-R RT-PCR” value (AH-R [3]; 1440 min) was 1.2 and the “CYP2B2 RT-PCR” value (CYP2B2 [4]; 360 min) was 8.4. The “CYP2B2 RT-PCR” value (CYP2B2 [4]; 1440 min) was 1.3, the “AH-R Affymetrix” value (AH-R [5]; 360 min) was 1.0 and the “AH-R Affymetrix” value (AH-R [5]; 1440 min) was 1.0. For the same molecule, the “PC3 (BTG2) Affymetrix” value (PC3 (BTG2); 360 min) was 0.4, the “PC3 (BTG2) Affymetrix” value (PC3 (BTG2); 1440 min) was 0.6 and the “CYP2B2 Affymetrix” value (CYP2B2 [6]; 360 min) was -1.2. For the same molecule, the “CYP2B2 Affymetrix” value (CYP2B2 [6]; 1440 min) was 1.1 and the “expression levels of few marker genes (RT-PCR, Fig. 10)” value (marker genes [7]) was “slight induction”.

With CC(=N)S [Thioacetamide] the “PCR Gadd153” value (Gadd153; 2 mg/kg, sampling time 6 hours) was 0.9 fold induction, the “PCR Gadd153” value (Gadd153; [18]) was 0.0 fold induction and the “PCR Gadd153” value (Gadd153; [13]) was 1.3 fold induction. The “PCR Gadd153” value (Gadd153; [14]) was 0.9 fold induction, the “PCR Gadd153” value (Gadd153; [19]) was 2.5 fold induction and the “PCR Gadd45” value (Gadd45; 2 mg/kg, sampling time 6 hours) was 8.1 fold induction. The “PCR Gadd45” value (Gadd45; [18]) was 0.0 fold induction, the “PCR Gadd45” value (Gadd45; [13]) was 2.9 fold induction and the “PCR Gadd45” value (Gadd45; [14]) was 1.7 fold induction. For the same molecule, the “PCR Gadd45” value (Gadd45; [19]) was 27.6 fold induction, the “PCR PEG3” value (PEG3; 2 mg/kg, sampling time 6 hours) was 2.0 fold induction and the “PCR PEG3” value (PEG3; [18]) was 0.9 fold induction. The “PCR PEG3” value (PEG3; [13]) was 1.9 fold induction, the “PCR PEG3” value (PEG3; [14]) was 0.5 fold induction and the “PCR PEG3” value (PEG3; [19]) was 7.8 fold induction. The “induction of genes from the GADD family” value [1] was “induction”.

With Cc1ccc(C(=O)c2cc(O)c(O)c([N+](=O)[O-])c2)cc1 [Tolcapone (Tasmar), Tolcapone] the “PCR EGR-1” value (EGR-1; 300 mg/kg administered three times) was 17.6 fold induction and the “induction of EGR1” value (EGR1; high dose 300 mg/kg) was “slight induction”.

For O=C(O)CCCCCCNC1c2ccccc2CCc2ccccc21 [amineptine], the “classification by support vector machines (identification of compound class)” value [2] was “steatotic compound”.

For “(4-Amino-N-(6-bromo-1 H -indol-4-yl)-benzenesulfonamide [Ro65-7199]”, the “induction of CYP2B (hepatic protein levels, Western blot)” value (CYP2B; 6 hours after administration) was “could not be detected”, the “protein levels of CYP2B (Western blot)” value (CYP2B; 24 hours and 7 days after treatment) was “closely paralleled the amounts of mRNA” and the “expression levels of few marker genes (RT-PCR, Fig. 10)” value (marker genes [8]) was “larger effect”.
